What was measured:
BCR-ABL Ba/F3 cells = assay: Western blots of CRAF immunoprecipitates and lysates, BCR-ABL Ba/F3 cells; conditions: BCR-ABL Ba/F3 cells
[1] = system: K562 cells expressing HRAS^G12V; type: cell-based, human
D04 cells (NRAS^Q61L) = conditions: western blot
[2] = patient plasma; ref Weisberg et al., 2007; Demetri et al., 2002; cited from earlier work
CRAF^T421N = CRAF^T421N (Homo sapiens, UniProt P04049, T421N); assay: RAF kinase assay, myc-tagged CRAF^T421N captured from COS cells; conditions: gatekeeper mutant; imatinib 10μM, nilotinib 1μM, dasatinib 5μM
[3] = system: SW620 (KRAS^G12V), Panc1 (KRAS^G12D) and H460 (KRAS^Q61H) cells; assay: Western blot for MEK and ERK activation in KRAS mutant cells; type: cell-based, human; conditions: imatinib 10μM, nilotinib 1μM, dasatinib 5μM
BV173 cells = assay: Western blots of CRAF immunoprecipitates and lysates, BV173 cells; type: cell-based, human
K562 cells = assay: Western blots of CRAF immunoprecipitates and lysates, K562 cells; type: cell-based, human; conditions: imatinib 10μM, nilotinib 1μM, dasatinib 5μM
CRAF [4] = biological target: T1, CRAF (Homo sapiens, UniProt P04049); assay: RAF kinase assay, myc-tagged CRAF captured from COS cells; conditions: imatinib 10μM, nilotinib 1μM, dasatinib 5μM
CRAF [5] = biological target: T1, CRAF; conditions: D04 cells; imatinib 10μM, nilotinib 1μM, dasatinib 5μM, 3 hr
BV173R cells = assay: Cell proliferation and apoptosis; conditions: 72 hr, absence of PD184352
[6] = system: BCR-ABL^T315I Ba/F3 cells; assay: Western blots of CRAF immunoprecipitates and lysates, BCR-ABL^T315I Ba/F3 cells; conditions: BCR-ABL^T315I Ba/F3 cells
BRAF = BRAF (Homo sapiens, UniProt P15056); assay: RAF kinase assay, myc-tagged BRAF captured from COS cells; conditions: various GNF-2 concentrations, 30 min
Chain of BRAF (P15056 whole entry): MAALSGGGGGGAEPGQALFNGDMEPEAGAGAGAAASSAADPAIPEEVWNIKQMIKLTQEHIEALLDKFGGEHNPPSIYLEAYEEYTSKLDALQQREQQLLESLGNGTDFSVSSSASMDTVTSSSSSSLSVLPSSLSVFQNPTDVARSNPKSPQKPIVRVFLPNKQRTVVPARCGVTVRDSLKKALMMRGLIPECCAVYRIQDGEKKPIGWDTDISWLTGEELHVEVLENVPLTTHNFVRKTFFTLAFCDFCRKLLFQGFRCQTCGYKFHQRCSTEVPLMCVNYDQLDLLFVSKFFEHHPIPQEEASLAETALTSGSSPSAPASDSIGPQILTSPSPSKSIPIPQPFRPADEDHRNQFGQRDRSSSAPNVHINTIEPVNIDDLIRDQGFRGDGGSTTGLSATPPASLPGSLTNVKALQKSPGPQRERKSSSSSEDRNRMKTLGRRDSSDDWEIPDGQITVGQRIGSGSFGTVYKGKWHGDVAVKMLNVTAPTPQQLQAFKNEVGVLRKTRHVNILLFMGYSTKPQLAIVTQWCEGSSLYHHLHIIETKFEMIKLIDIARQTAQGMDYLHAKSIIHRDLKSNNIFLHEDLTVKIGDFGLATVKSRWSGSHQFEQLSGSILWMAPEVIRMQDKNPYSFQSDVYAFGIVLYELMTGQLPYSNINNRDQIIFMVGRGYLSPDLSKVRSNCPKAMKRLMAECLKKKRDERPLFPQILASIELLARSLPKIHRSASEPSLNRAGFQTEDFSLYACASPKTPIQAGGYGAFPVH

Oc1cc(-c2nc(-c3ccccc3)[nH]c2-c2ccncc2)ccc1Cl [L779450]
BCR-ABL (Y245) and CRKL (Y207) phosphorylation (BCR-ABL Ba/F3 cells): Neither agent inhibited BCR-ABL or CRKL phosphorylation | BRAF binding to CRAF (BCR-ABL Ba/F3 cells): stimulated BRAF binding to CRAF | CRAF (S338) phosphorylation, MEK and ERK activity/phosphorylation (BCR-ABL Ba/F3 cells): stimulated

CN(C)CCOc1ccc(-c2nc(-c3ccncc3)c(-c3ccc4c(c3)CC/C4=N\O)[nH]2)cc1 [SB590885]
BCR-ABL (Y245) and CRKL (Y207) phosphorylation (BCR-ABL Ba/F3 cells): Neither agent inhibited BCR-ABL or CRKL phosphorylation | BRAF binding to CRAF (BCR-ABL Ba/F3 cells): stimulated BRAF binding to CRAF | CRAF (S338) phosphorylation, MEK and ERK activity/phosphorylation (BCR-ABL Ba/F3 cells): stimulated

Cc1nc(Nc2ncc(C(=O)Nc3c(C)cccc3Cl)s2)cc(N2CCN(CCO)CC2)n1 [dasatinib]
BRAF binding to CRAF ([1]; imatinib 10μM, nilotinib 1μM, dasatinib 5μM): induced BRAF binding to CRAF | MEK and ERK phosphorylation ([1]; pathway already saturated): did not increase MEK and ERK phosphorylation | lowest concentration stimulating robust MEK and ERK phosphorylation (D04 cells (NRAS^Q61L)): 100 nM | peak plasma/serum concentration [2]: ~90 nM | CRAF^T421N kinase activity in vitro (CRAF^T421N): resistant | MEK and ERK activation [3]: activated MEK and ERK | BCR-ABL and CRKL phosphorylation (BV173 cells): inhibited BCR-ABL and CRKL phosphorylation | BRAF binding to CRAF (BV173 cells): did not induce BRAF binding to CRAF | MEK and ERK activity (BV173 cells): inhibited MEK and ERK | BRAF binding to CRAF (K562 cells): did not induce BRAF binding to CRAF | CRAF kinase activity in vitro (CRAF [4]): inhibited | endogenous CRAF kinase activity (CRAF [5]): activated

CNC(=O)c1cc(Oc2ccc(NC(=O)Nc3ccc(Cl)c(C(F)(F)F)c3)cc2)ccn1 [sorafenib]
cell death (apoptotic sub-G1 cells) (BV173R cells): induced cell death

NC(=O)c1cccc(-c2cc(Nc3ccc(OC(F)(F)F)cc3)ncn2)c1 [GNF-2]
BCR-ABL and CRKL phosphorylation [6]: did not block BCR-ABL or CRKL phosphorylation | BRAF binding to CRAF [6]: did not induce BRAF binding to CRAF | CRAF (S338) phosphorylation, MEK and ERK activity/phosphorylation [6]: did not increase CRAF, MEK or ERK phosphorylation | BCR-ABL (Y245) and CRKL (Y207) phosphorylation (BCR-ABL Ba/F3 cells): blocked | CRAF (S338) phosphorylation, MEK and ERK activity/phosphorylation (BCR-ABL Ba/F3 cells): blocked | BRAF activity in vitro (BRAF): did not inhibit BRAF activity in vitro

Cn1c(Nc2ccc(C(F)(F)F)cc2)nc2cc(Oc3ccnc(-c4ncc(C(F)(F)F)[nH]4)c3)ccc21 [RAF265]
cell death (apoptotic sub-G1 cells) (BV173R cells): induced cell death | BCR-ABL and CRKL phosphorylation [6]: did not inhibit BCR-ABL or CRKL phosphorylation | BRAF binding to CRAF [6]: induced BRAF binding to CRAF

Source: paper PMC3951999 (Cancer cell, 2011)
